Where no end group is shown, it is not given here.
Tests used:
[1] = tested on: Hsp90; conditions: upon Hsp90 inhibition (Taiyab & Rao Ch, 2011); cited from earlier work
[2] = tested on: MM6, HEK293, HaCaT, HeLa and HT-29; assay: Cytotoxicity assays (MTT and resazurin/Alamar Blue) on 5 mammalian cell lines; format: cell-based, human; conditions: 24h and 48h of exposure
Procedure: (§1) Cytotoxicity assays were conducted on 5 different mammalian cell lines after 24h and 48h of exposure to the various compounds, using the colorimetric tetrazolium dye MTT and the fluorometric resazurin (Alamar Blue): MM6 (human cell line with characteristics of mature monocytes), HEK293 (human embryonic kidney cells), HaCaT (human keratinocyte cell line), HeLa (human cervical cancer cell line) and HT-29 (human colon cancer cell line).

[3] = tested on: S. aureus; assay: Septic arthritis mouse model (mouse sepsis model); format: in vivo; conditions: mice treated with L15
Procedure: (§2) The figures show: • Figure 1: Extent of sequence homology of the nine Lpl proteins encoded by the lpl operon in S. aureus USA300. […] LSP, leader signal peptide. Total length without LSP is 267 aa. We have chosen Lpli as a prototype of Lpl proteins for further studies. • Figure 2: L13 and L15 inhibit S. aureus internalization by HaCaT cells and N/TERT1 cells. N/TERT-1 are immortalized human keratinocytes. L15 was used at 20 µM), L13 at 30 µM and geldanamycin at 5 µM. SNC1 is representative for the many peptides that had no effect • Figure 3: Alignment of Lpl protein homologs. (A) Multiple sequence alignment of Lpls generated by using SnapGene software. Amino acids that match the Lpli sequence are highlighted in yellow. […] A therapeutic model (treatment at intervals post-infection) is already envisaged in the course of this project. • Figure 5: Quantification of the secreted cytokine IL-23 after stimulation of peripheral blood mononuclear cells of different donors with various cell wall components of Staphylococcus aureus. […] The measured IL-23 concentrations are depicted in pg/ml ± standard error of mean (SEM). • Figure 6: Prediction of Lpli structure and localization of L15 (top row, binding area indicated by white arrows) and L13 (bottom row, binding area indicated by white arrows) in Lpli. […]

[4] = tested on: peripheral blood mononuclear cells (PBMCs); assay: Cytokine production by stimulated peripheral blood mononuclear cells (LegendPlex-Kits); format: cell-based; conditions: PBMCs from different donors; MDP 20 µg/ml, others 6 and 30 µg/ml
Procedure: as §2

[5] = in vitro; format: cell-based; conditions: human; 24h and 48h of exposure; MTT and resazurin; MM6, HEK293, HaCaT, HeLa, HT-29; read-out: cytotoxicity (viability), concentration
Procedure: as §1

[6] = Solubility remark; format: physicochemical; conditions: compared with L15; reason why only L15 was used in mice

C=CCNC1=C2C[C@@H](C)C[C@H](OC)[C@H](O)[C@@H](C)/C=C(\C)[C@H](OC(N)=O)[C@@H](OC)/C=C\C=C(/C)C(=O)NC(=CC1=O)C2=O [Peptide 17AAG, 17AAG]
F-actin formation [1]: decreased

TAKGHYFVTTFYRNG [Peptide L15, TAKGHYFVTTFYRNG]
cytotoxicity (viability), concentration [2]: > 100 µM
behaviour of treated mice (side observation) [3]: hyperactive

CC(=O)N[C@H]1C(O)O[C@H](CO)[C@@H](O)[C@@H]1O[C@H](C)C(=O)N[C@@H](C)C(=O)N[C@H](CCC(=O)O)C(N)=O (mixture of isomers) [Muramyl Dipeptide (MDP), Muramyl Dipeptide]
levels of TNF, IL-1β, IL-6 or IL-10 induced [4]: high levels

COC1=C2C[C@@H](C)C[C@H](OC)[C@H](O)[C@@H](C)/C=C(\C)[C@H](OC(N)=O)[C@@H](OC)/C=C\C=C(/C)C(=O)NC(=CC1=O)C2=O [geldanamycin]
MCC [5]: ≤ 10 µM

GHYFVTTFY [Peptide L13, GHYFVTTFY]
cytotoxicity (viability), concentration [2]: > 100 µM
solubility [6]: less soluble

— patent publication EP4201483A1, “LPL1 DERIVED IMMUNE ENHANCING PEPTIDES” (Eberhard-Karls-Universität Tübingen, priority 2021, dated 2023)
